Numbers after ± are expanded uncertainties.
Experiments:
[1] = Molar enthalpy of transition or fusion; settings: Crystal; DSC
[2] = for mass density: 298.15 K, 101.33 kPa, Liquid, Pycnometric method

SMILES	Molar enthalpy of transition or fusion [1] [kJ/mol]	Normal melting temperature ([2]; Crystal, DTA) [°C]	mass density [2] [kg/m3]
CNC(=O)NC [1,3-dimethylurea]	12.8 ± 0.39	103.20 ± 1.1	
CC(C)=O [acetone]			785.1 ± 1.4
CC#N [acetonitrile]			777 ± 1.4
CCC(C)O (stereo not drawn) [butan-2-ol]			802.4 ± 1.5
CCCCOC(C)=O [butyl ethanoate]			875.8 ± 1.6
CCOC(C)=O [ethyl acetate]			894.4 ± 1.6
CC(C)O [propan-2-ol]			781.2 ± 1.4

Source: the NIST ThermoML archive (doi:10.1016/j.jct.2015.12.032)
